EPA's ToxValDB 9.5 (doi:10.2903/j.efsa.2006.66r)

Tests used:
Canidae = conditions: subchronic; duration: 90 days; oral; Dog Other; neurology
Colinus virginianus = conditions: reproduction developmental; duration: 21 weeks; oral; diet; reproduction
Daphnia magna = conditions: chronic/long-term; duration: 21 days; reproduction
Oncorhynchus mykiss = conditions: chronic/long-term; duration: 21 days; mortality
Poecilus cupreus = conditions: not reported; mortality
Rattus norvegicus = conditions: for NOAEL: neurology
Tagia sp. = conditions: chronic/long-term; duration: 56 days

CCCSP(=O)(OCC)SCCC [Ethoprop]
NOAEL (Canidae): 0.1 mg/kg-day | NOEC (Colinus virginianus): < 0.6 mg/kg-day | NOEC (Daphnia magna): 0.002 mg/L | NOEC (Oncorhynchus mykiss): 0.064 mg/L | LEL (Poecilus cupreus): 7000 g/ha | NOAEL (Rattus norvegicus; acute, oral): 1 mg/kg-day | NOAEL (Rattus norvegicus; chronic, duration: 2 years): 0.04 mg/kg-day | NOEL (Rattus norvegicus; reproduction developmental, reproduction): 1.3 mg/kg-day | NOAEL (Rattus norvegicus; short-term, duration: 28 days, oral): 0.1 mg/kg-day | NOEC (Tagia sp.): < 1.67 mg/kg
